Measurements published in patent US20100035888A1, “Diaryl Urea for Treating Pulmonary Hypertension” (Bater Healthcare AG, priority 2005, published 2010).

Test system: monocrotaline-treated rats with pulmonary hypertension
Assay: Pulmonary artery pressure in monocrotaline treated rats (MCT-induced pulmonary arterial hypertension)
Format: in vivo, rat
Conditions: 3 mg/kg by gavage once daily from day 14 to day 28 after MCT
Method: The effects of the compounds and drug combinations according to the invention are tested in vitro on isolated rat pulmonary arteries and in vivo in monocrotaline-treated rats with pulmonary hypertension.
Male Sprague Dawley rats (250-300 g) are treated with monocrotaline 60 mg/kg subcutanously (=day 0). On day 14 after monocrotaline injection treatment the compound/combination to be tested is administered. On day 28 hemodynamic parameters, i.e. right ventricular pressure, systemic blood pressure, heart rate, arterial and venous oxygen saturation are measured and compared with untreated control animals.
Monocrotaline (MCT) treated rats are randomized to receive 4{4-[3-(4-chloro-3-trifluoromethylphenyl)-ureido]-3-fluorophenoxy}-pyridine-2-carboxylic acid methylamide 3 mg/kg or vehicle by gavage once daily after the onset of moderate pulmonary arterial hypertension starting 14 days after the injection of MCT until day 28. […]

CNC(=O)c1cc(Oc2ccc(NC(=O)Nc3ccc(Cl)c(C(F)(F)F)c3)c(F)c2)ccn1 [BAY73-4506, 4{4-[3-(4-chloro-3-trifluoromethylphenyl)-ureido]-3-fluorophenoxy}-pyridine-2-carboxylic acid methylamide]
mortality rate (control 0%, placebo 40%): 0% | right ventricle/left ventricle+septum ratio (right ventricular hypertrophy) (mean±SEM, control 0.25±0.01, placebo 0.62±0.02): 0.28±0.01
